Experimental data taken from patent US7361279B2, “Removing metals from solution using metal binding compounds and sorbents therefor” (priority 2002, dated 2008).
Where “and” joins values, the source holds several entries; their conditions need not be identical. Equal values may be shown once.

Assays:
[1] = Differential pulse polarography, stability constants (DeFord-Hume, Lingane), Pb(II); format: binding
From the text: (§1) Such an approach was applied to estimate the strength of metal-benzotriazole interactions in acidic solutions. The current that flows during a single life time of a dropping mercury electrode (DME) is held at a given potential in a polarograph and is described by the Ilkovic Equation: Id=708nDo^1/2C0*m^2/3t^1/6 (2)
(§2) In their classic report, Deford and Hume (1951) defined a series of functions, where the change in reduction potential of a target ion, measured with a polarograph, can be directely related to its complexation stability by the progressive addition of a known ligand.
(§3) Stability constants are obtained as follows where F0(x)=ΣβnCL^n=β0β1CL+β2CL^2+ . . . +βnCL^n (7)
(§4) In order to obtain β1, . . . , βn, a widely-accepted graphical extrapolation method derived by Leden (1941) was applied. Sequential plots of equation (7) (Fn(X) vs. C) yielded a family of curves, through which coordination chemistry between metals and benzotriazoles was determined.
(§5) The maximum coordination number was also independently determined using the Lingane method reported by Crow (1969) with a plot of ΔE1/2 Vs. Log Cx relationship, using the Lingane equation: […]
(§6) βmxj (the overall stability constant), and j (maximum number of ligands coordinated with a metal through a reversible series of complexing interactions), were determined for Cu(II), Pb(II) and Zn(II) interactions with benzotriazoles. The present application reports the development and use of polarographic methods for quantification of benzotriazole complexes to study their potential for immobilizing metals on activated carbon surfaces.
(§7) Polarographic and voltammetric measurements were performed with a CV-50W Voltametric analyzer fitted with a controlled growth mercury electrode; this multimode electrode was used in a static mercury drop electrode (SMDE) mode. The mercury electrode was multiplexed using BAS commercial software (Bioanalytical Systems, Inc., Lafayette, Ind., USA) a platinum auxiliary electrode and an Ag/AgCl (3 M KCl) reference electrode. All potentials were normalized to the Ag/AgCl electrode. A system scan rate of 5 mV s^−1 was used with a drop time of 1 sec. For DPP, the pulse amplitude was 100 mV with a sample width of 17 msec. A repeatable drop size was produced using a borosilicate capillary tube. The solenoid activation setting was 100 ms for all runs.
(§8) For the stability constant calculations, a 15 ml supporting electrolyte solution was pipetted into the voltammetric cell and the metal salt addition was adjusted to yield a final concentration of approximately 10^−5 M. The ligand (5-methybenzotriazole) was then added in increasing concentration from 0 to 1×10^−2 M. Polarograms were constructed, and the shift in the half wave potential was recorded after each ligand addition. All DPP measurements were made in triplicate.

[2] = Differential pulse polarography, stability constants (DeFord-Hume, Lingane), Cu(II); format: binding
From the text: as §1, §2, §3, §4, §5, §6, §7, §8

[3] = Differential pulse polarography, Zn(II) complexation; format: binding; details: DPP, increasing MeBT
From the text: as §1, §2, §6
Polarographic and voltammetric measurements were performed with a CV-50W Voltametric analyzer fitted with a controlled growth mercury electrode; this multimode electrode was used in a static mercury drop electrode (SMDE) mode. […]

[4] = Batch microcosm immobilization of lead on Calgon MRX-P GAC
Protocol: (§9) Experiments were executed to bracket a range of MeBT and carbon concentrations near the sorptive capacity of calgon MRX, as judged by Freundlich isotherm modeling (c.a. 49 mg/g). Lead, copper, and zinc were chosen as models to study the complexation behavior and sorptive interactions when MeBT is bound to different transition metals. Different ratios of ligand (MeBT) and metal were chosen based on the coordination stichiometry of MeBT with each metal. The ionic strength was held constant at 0.0 1M, and H2SO4 and HNO3 were used as background electrolytes. Lead, copper and zinc concentrations of 10 mg/L and carbon concentrations of 5 g/L were employed for batch microcosm assays.
(§10) Microcosms used for benzotriazole-metal immobilization experiments on GAC. Microcosms consisted of 250 ml Erlenmeyer flasks containing 75 mls of test solution with and without activated carbon. 75 milliliter aliquots of MeBT solution containing known GAC masses were placed in 250 ml Erlenmeyer flask. The samples were allowed to equilibrate on a shaker table at 15° C. for no more than 24 hours. Following equilibration, the samples were centrifuged and the supernatant was analyzed for both metal and 5-MeBT content. Metal-ligand molar ratios of 1:0, 1:2, 1:10, and 1:30 were employed. Identical experiments were conducted for each metal in the absence of GAC for the same metal: ligand ratios to determine any possible metal removal effects associated with precipitation. The resulting aqueous metal concentrations were measured by DPP and confirmed by inductive coupled plasma/atomic emission spectroscopy (ARL 3410 ICP/AES) in an EPA certified laboratory in the Geology department at University of Colorado. 5-MeBT was measured by both DPP and HPLC methods.

[5] = Batch microcosm immobilization of copper on Calgon MRX-P GAC
Protocol: as §9, §10

[6] = Batch microcosm immobilization of zinc on Calgon MRX-P GAC; details: pH 3, ligand to metal ratio 30:1, carbon 5 g/L
Protocol: as §9
as §10, with “The samples were allowed to equilibrate on a shaker table at 15° C. for no more than 24 hours.” left out, “Metal-ligand molar ratios of 1:0, 1:2, 1:10, and 1:30 were employed. Identical experiments were conducted for each metal in the absence of GAC for the same metal: ligand ratios to determine any possible metal removal effects associated with precipitation.” left out

[7] = Removal of benzotriazoles from solution by granular activated carbon; format: physicochemical; details: for soluble 5-MeBT content after exposure to GAC (HPLC): after 24 hours
Protocol: (§11) A spectra-Physics high performance liquid chromatograph (HPLC) fitted with a UV detector (λ=254 nm) was used. 5-MeBT analysis was performed isocratically using two Zorbax Rx-C8 4.6×250 mm columns in series (MacMod Analytical, Inc., Chadds Ford, Pa., USA). The eluent consisted of a phosphate buffer mixed in a 70:30 ratio with HPLC grade acetylnitrile at a flow rate of 1.5 ml/minute with a sample injection volume of 200 μl. All samples were centrifuged at 10,000×g for 5 minutes prior to analysis.
Using simple time-series analysis of soluble methylbenzotriazole, the minimum time required for complete sorption was determined. Each experiment reached equilibrium before 48 hours, using a criteria of no more than 4% change in aqueous concentration during the observation period. Mass balances were used to determine the equilibrium portioning of MeBT in the microcosms system. Aqueous concentration data was used to calculate the amount of MeBT associated with GAC by differences. The equilibrium partioning data were then inverted and log-transformed, and tested against widely-accepted sorption models for “best-fit”.
as §11, with “chromatography” for “chromatograph”, “(HPLC)” for “(HPLC) fitted”, “UV-Vis Detector” for “a UV detector”, “Methylbenzotriazole” for “5-MeBT”
as §10

[8] = Desorption of MeBT from GAC surfaces; format: physicochemical; details: 30 day period, metal- and benzotriazole-free solutions, pH 2-5, varying ionic strength
Protocol: After sorption, GAC was removed, washed with water, and then transferred to a clean electrolyte solution at different pH (pH 2-4) to investigate the stability of the metal: 5-MeBT complexes once immobilized on activated carbon. After 24 hours of equilibration and at time intervals 0, 7, and 30 days, 5 mls of each sample was centrifuged and analyzed for both metal and 5-MeBT content using both ICP/EAS and HPLC.
The potential for the desorption of MeBT from GAC surfaces was monitored over a 30 day period.

[9] = cited from earlier work
[10] = Pb(II) 3 × 10^−5 M, 5-MeBT 0-7 × 10^−3 M
[11] = [Pb(II)]=3×10^−5M, pH=3, T=25° C.
[12] = Cu(II) 5 × 10^−5 M, 5-MeBT 0-3 × 10^−3 M
[13] = [Cu(II)]=5×10^−5M, pH=2.5, T=25° C.

Which “DeFord-Hume method Log β1” value [1, 10] does the source give for `Cc1ccc2[nH]nnc2c1` [5-MeBT, 5-methylbenzotriazole] here?
Its value is 3.3.

What about the “Lingane method Log βn” value [1, 10] of the same molecule?
Its value is 3.8.

And the “Maximum coordination number (ligand: metal ratio)” value [1, 10]?
The value was 1.

And the “β1 from intercept of F1(X) vs. [MeBT]” value [1, 11]?
The value was ~1.8×10^3.

And the “β1 from slope of Fo(X) vs. [MeBT]” value [1, 11]?
The value was ~2.2×10^3.

What about the “β (copper complexing agent)” value [2] of the same molecule?
Its value is ~10^15.

What about the “DeFord-Hume method Log β1” value [2, 12] of the same molecule?
Its value is 12.8.

What about the “DeFord-Hume method Log β2” value [2, 12] of the same molecule?
Its value is 15.8.

What about the “Lingane method Log βn” value [2, 12] of the same molecule?
The value was 15.8.

And the “Maximum coordination number (ligand: metal ratio)” value [2, 12]?
Its value is 2.

And the “β1 (first complex stability) from intercept of F1(X)” value [2, 13]?
The value was ~6×10^12.

What about the “β2 (overall stability constant) from slope of F1(X)” value [2, 13] of the same molecule?
Its value is ~7×10^15.

What about the “β2 from intercept of F2(X) vs. [5-MeBT]” value [2, 13] of the same molecule?
The value was 7×10^15.

And the “potential shift on addition of MeBT to zinc-containing solutions” value [3]?
The value was “no potential shifts”.

What about the “potential shift on addition of MeBT to zinc-containing solutions” value ([3]; listed as methybenzotriazole) of the same molecule?
The value was “no significant potential shifts”.

And the “share of lead sequestered on GAC associated with an MeBT precipitate” value [4]?
Its value is “approximately 25%”.

What about the “share of lead sequestered on GAC associated with soluble MeBT complex” value [4] of the same molecule?
Its value is ~75%.

And the “Pb(II) removal in the absence of GAC (precipitation)” value (shortened to “Pb(II) removal in the absence of GAC”) ([4]; pH 2, MeBT to Pb(II) molar ratio 2)?
Its value is “approximately 2.5%”.

What about the “Pb(II) removal in the absence of GAC” value ([4]; pH 2, MeBT to Pb(II) molar ratio 10) of the same molecule?
Its value is ~6%.

What about the “Pb(II) removal in the absence of GAC” value ([4]; pH 2, MeBT to Pb(II) molar ratio 30) of the same molecule?
Its value is ~12%.

What about the “precipitation-associated Pb(II) removal” value ([4]; pH 3, absence of GAC) of the same molecule?
Its value is “about 20%”.

And the “Pb(II) removal efficiency, maximum” value ([4]; pH 3, ligand to metal ratio approximately 30:1, carbon 5 g/L)?
Its value is 82%.

And the “share of copper sequestered on GAC associated with an MeBT precipitate” value ([5]; pH 2)?
The value was “almost none”.

What about the “Cu(II) removal efficiency, maximum” value ([5]; pH 2, ligand to metal ratio 30:1, carbon 5 g/L) of the same molecule?
The value was 13%.

And the “share of copper removal associated with an MeBT precipitate” value ([5]; pH 3)?
The value was “approximately 18%”.

And the “Cu(II) removal” value ([5]; pH 3, MeBT to Cu(II) molar ratios of 2, 10 and 30)?
The value was 32-35%.

And the “share of copper removal associated with an MeBT precipitate” value ([5]; pH 4)?
Its value is ~40%.

And the “Zn(II) removal efficiency, maximum” value [6]?
The value was 9%.

And the “time to sorption equilibrium” value ([7]; 1% GAC w/vol, 10-2000 mg/L MeBT, no more than 4% change criterion)?
Its value is < 48 h.

What about the “affinity for granular activated carbon compared with benzene” value ([7]; Calgon MRX 10×30 mesh, pH 2 to 5) of the same molecule?
Its value is “approximately the same as that observed for benzene”.

What about the “soluble 5-MeBT content after exposure to GAC (HPLC)” value (from here on “soluble 5-MeBT content”) ([7]; copper microcosms) of the same molecule?
The value was “less than 0.25 mg/L”.

What about the “soluble 5-MeBT content” value ([7]; lead microcosms) of the same molecule?
Its value is “less than 0.25 mg/L”.

What about the “soluble 5-MeBT content” value ([7]; zinc microcosms) of the same molecule?
Its value is “less than 0.25 mg/L”.

What about the “desorption of 5-MeBT from saturated Calgon MRX-P” value [8] of the same molecule?
Its value is “did not liberate measurable amounts”.

What about the “first pKa (dissociation)” value [9] of the same molecule?
The value was ~2 and 2.

What about the “second pKa (dissociation)” value [9] of the same molecule?
Its value is ~9.

What about the pKa ([9]; weak organic acid) of the same molecule?
Its pKa is “approximately 8.8”.
